The source of these data is US20260232579A1 (Aspire Biopharma, Inc., priority 2023, published 2026).

Data set [1] can be described thus: Henderson-Hasselbalch calculation of ionized to non-ionized aspirin at saliva pH. The text has this: In its conjugate base/ionized form, aspirin is unable to efficiently cross the mucous membranes in the oral cavity to enter the blood stream, rendering oral mucosal (e.g., sublingual and/or buccal) delivery of ionized aspirin inefficient. The pH of saliva in the oral cavity ranges between 6.2 to 7.6 (Dawood, […]. Saliva and Oral Health. Int. J. Adv. Res. Biol. Sci. 2018, 5, 1-45) depending on the individual, with an average pH of 6.7. The Henderson-Hasselbalch equation, represented by Equation 2 below, provides the ratio of conjugate base to acid at a given pH of an acid having a given pKa. […] Exemplary calculations are provided below. Using the lower saliva pH limit of 6.2 in equation 1: Using the upper saliva pH limit of 7.6 in equation 1: […]

A short description of data set [2]: Determination of pH of aspirin samples (USP <791>). It is filed as physicochemical. Particulars: 1861.9 mg sample in 5.0 mL USP water, stirred 15 minutes. The method, then:
Determination of the pH of a solution of a formulation disclosed herein may be accomplished by methods known in the art, e.g., as described herein and by standard protocols, e.g., by protocols described in the United States Pharmacopoeia, Chapter <791>.
The pH values of aspirin API and batch nos. F22006-001, F22006-004, F22006-002, F22006-003, and F22006-005 were determined using standard protocols as described in the United States Pharmacopoeia, Chapter <791>. […] The pH of the mixture was measured using a Mettler Toledo pH meter.

Structures are written as SMILES.

With `CC(=O)Oc1ccccc1C(=O)O` [Aspirin, 2-acetoxybenzoic acid], the “ionized aspirin molecules for every one molecule of non-ionized aspirin” value in data set [1] (average saliva pH value of 6.7, pKa […]) is given as 1584; in data set [1] (lower saliva pH limit of 6.2, pKa […]), 501; in data set [1] (upper saliva pH limit of 7.6, pKa […]), 12589. The compound further came in with a pH in data set [2] of 2.62.
